{
  "source": "patent US8110544B2",
  "about": "“RasGAP derived peptide for selectively killing cancer cells” (Universite de Lausanne, priority 2003, dated 2012)",
  "key": {"NFκB activity": {"tested_on": "NFκB activity", "assay": "NFκB firefly luciferase reporter assay in U2OS cells", "type": "cell-based, human", "conditions": "20 μM peptide or cisplatin, 20 hours", "experimental": "U2OS Cells (1×10^5) were plated in 6 well plates and transfected with 1 μg of a firefly luciferase reporter plasmid for NFκB activity and 0.1 μg of a plasmid encoding the Renilla luciferase. The cells were treated one day later with the indicated concentrations of cisplatin in the absence or in the presence of 20 μM HV-TAT48-57 or TAT-RaSGAP317-326 peptides during 20 hours. The data represent the firefly luciferase activity normalized to the Renilla luciferase activity and expressed as fold increase of the basal NFκB activity obtained in control untreated cells. The results correspond to the mean±standard deviation of three independent determinations. Asterisks denote significant differences between the indicated conditions (**, p<0.01; ***, p<0.001).\nU2OS cells were transfected with 1 μg of a firefly luciferase reporter plasmid for NFκB activity, 0.1 μg of a plasmid encoding the Renilla luciferase, 0.5 μg of a GFP-expressing plasmid (to label the transfected cells), 1 μg of a plasmid encoding IκBαΔN2 that inhibit the NFκB pathway or with 1 μg an empty pcDNA3 vector. The cells were incubated one day later with increasing concentrations of cisplatin in the presence of 20 μM HIV-TAT48-57 or 20 μM TAT-RasGAP317-326 for an additional 20 hour period. The cells were then lysed and the NFκB activity assessed as described in panel A, except that the results were expressed as fold increase of the NFκB activity detected in cells incubated with the control HV-TAT48-57 peptide.\nLuciferase assay was performed using the Dual-Luciferase® Reporter Assay from Promega (cat. no E1910). […] The firefly luciferase activity was recorded by mixing 20 μl of the lysate with 25 μl of the LARII Reagent and the Renilla luciferase activity was recorded by adding to the previous mix 25 μl of the Stop & Glo Reagent. For each measurement, light emission was quantified during 12 seconds using a Lumat LB 9501 luminometer (Berthold Technologies, Zurich, Switzerland)."}, "HeLa cells [1]": {"tested_on": "HeLa cells", "assay": "Apoptosis (pycnotic nuclei) of HeLa cells transfected with RasGAP constructs and treated with genotoxins", "type": "cell-based, human", "conditions": "for potentiation of cisplatin-induced apoptosis in HeLa cells: transfected construct, 0.15 μM cisplatin, apoptosis scored 20 hours later", "experimental": "HeLa cells (2×10^6) were plated in 10-cm-diameter Petri dishes, transfected with 1 μg of GFP-expressing plasmid (to label the transfected cells) together with 2 μg of an empty pcDNA3 plasmid or 2 μg of a pcDNA3 vector encoding fragment N2. One day following the transfection, the cells were incubated for 24 hours with the indicated concentrations of cisplatin, adriamycin or mitoxantrone. The number of GFP-positive cells displaying pycnotic nucleus was then scored.\nHeLa cells were transfected as described in FIG. 1 with plasmids endoding the constructs described in FIG. 2A. HeLa cells were then treated or not with 0.15 μM cisplatin and the extent of apoptosis was determined 20 hours later. The results correspond to the mean±standard deviation of three independent determinations. Asterisks denote a significant difference between the cells treated with 0.15 μM cisplatin and the cells without treatment (**, p<0.01; ***, p<0.001).\nHeLa and MCF-7 cells were maintained in RPMI 1640 (Sigma; cat. no 8758) containing 10% newborn calf serum (Sigma; cat. no N4637) at 37° C. and 5% CO2. U2OS cells were maintained in DMEM (Sigma; cat. no 5796) containing 15% foetal calf serum (Sigma; cat. no F7524) at 37° C. and 5% CO2. H-Meso-1 cells were maintained in RPMN 1640 containing 10% foetal calf serum at 37° C. and 5% CO2. […] After 8 hours at 37° C. and 5% CO2, the medium was replaced with fresh culture medium and the cells were further incubated for 16-24 hours before being analyzed.\nApoptosis was determined by scoring the number of cells displaying pycnotic nuclei. Nuclei of live cells were labeled with Hoechst 33342 (10 μg/ml final concentration) for about 5 minutes and the cells were then analyzed (at least 400 cells per condition) using an inverted Leica DMIRB microscope equipped with fluorescence and transmitted light optics. […] In this case, the extent of apoptosis was assessed in the transfected cells only. […]"}, "p38 MAPKs": {"tested_on": "p38 MAPKs", "assay": "Western blot of phospho-p38 in U2OS cells", "type": "cell-based, human", "conditions": "20 μM peptide", "experimental": "(§1) U2OS cells (2×10^5) were plated in 6 well plates and treated for the indicated periods of time with the indicated combinations of the HW-TAT48-57 or TAT-RasGAP317-326 peptides (at a 20 μM concentration) and cisplatin (at a 30 μM concentration). Positive controls for JNK and p38 activation were obtained following stimulation of the cells with 1 μg/ml anisomycine during 3 hours and with 0.5 M sorbitol for 30 min, respectively. The quantitations depicted under the Western blots were performed on the 12-hour bands and normalized against the positive controls. The results correspond to the mean±standard deviation of three independent experiments. […]"}, "JNK": {"tested_on": "JNK", "assay": "Western blot of phospho-JNK in U2OS cells", "type": "cell-based, human", "conditions": "20 μM peptide", "experimental": "as §1"}, "HeLa cells [2]": {"tested_on": "HeLa cells", "conditions": "Yang and Widmann 2001; cited from earlier work"}},
  "data": [
    {"molecule": "N.N.[Cl][Pt][Cl]", "note": "[cisplatin, reference compound]", "values": [
      {"measurement": "NFkB activation in U2OS cells (single agent)", "setting": "NFκB activity", "value": "activated"}
    ]},
    {"molecule": "WMWVTNLRTD (listed as Homo sapiens) [317-326, 10 amino acid long peptide expressed from a transfected construct]", "values": [
      {"measurement": "potentiation of cisplatin-induced apoptosis in HeLa cells", "setting": "HeLa cells [1]", "value": "potentiated the ability of cisplatin to kill HeLa cells"}
    ]},
    {"molecule": "GRKKRRQRRR [HIV-TAT48-57, reference compound]", "values": [
      {"measurement": "activation of p38 MAPK pathway by peptide alone", "setting": "p38 MAPKs", "value": "neither the control HIV-TAT48-57 peptide nor the TAT-RasGAP317-326 peptide activated these MAPK pathways"},
      {"measurement": "activation of JNK pathway by peptide alone", "setting": "JNK", "value": "neither the control HIV-TAT48-57 peptide nor the TAT-RasGAP317-326 peptide activated these MAPK pathways"}
    ]},
    {"molecule": "fragment N2: human RasGAP amino acids 158 to 455, 36 kDa, expressed from plasmid N2.dn3 (protein, UniProt P20936 158-455, looked up, fragment) SLDGPEYEEEEVAIPLTAPPTNQWYHGKLDRTIAEERLRQAGKSGSYLIRESDRRPGSFVLSFLSQMNVVNHFRIIAMCGDYYIGGRRFSSLSDLIGYYSHVSCLLKGEKLLYPVAPPEPVEDRRRVRAILPYTKVPDTDEISFLKGDMFIVHNELEDGWMWVTNLRTDEQGLIVEDLVEEVGREEDPHEGKIWFHGKISKQEAYNLLMTVGQVCSFLVRPSDNTPGDYSLYFRTNENIQRFKICPTPNNQFMMGGRYYNSIGDIIDHYRKEQIVEGYYLKEPVPMQDQEQVLNDTVD", "values": [
      {"measurement": "sensitivity of HeLa cells towards the various drugs relative to control cells", "setting": "HeLa cells [1]; HeLa cells expressing fragment N2 vs empty pcDNA3, cisplatin, adriamycin, mitoxantrone, 24 hours", "value": "at least 10 times"},
      {"measurement": "ability of cisplatin to kill the HeLa tumor cell line", "setting": "HeLa cells [2]", "value": "enhances the ability of cisplatin to kill the HeLa tumor cell line"}
    ]},
    {"molecule": "SH2 domain: human RasGAP amino acids 158-277, expressed from plasmid SH2.dn3 (protein, UniProt P20936 158-277, looked up, fragment, SH2 domain, human RasGAP amino acids 158-277, expressed from plasmid SH2.dn3) SLDGPEYEEEEVAIPLTAPPTNQWYHGKLDRTIAEERLRQAGKSGSYLIRESDRRPGSFVLSFLSQMNVVNHFRIIAMCGDYYIGGRRFSSLSDLIGYYSHVSCLLKGEKLLYPVAPPEP", "values": [
      {"measurement": "potentiation of cisplatin-induced apoptosis in HeLa cells", "setting": "HeLa cells [1]", "value": "did not enhance the ability of cisplatin to kill HeLa cells"}
    ]}
  ]
}
